Measurements published in paper PMC6293271, “Bactericidal/Permeability-Increasing Protein Is an Enhancer of Bacterial Lipoprotein Recognition” (Frontiers in Immunology, 2018).
Ends that are not written are not given here. * marks the point of attachment. Palmitoyl = CCCCCCCCCCCCCCCC(=O)*

Tests used:
rBPI [1] = system: T1, rBPI; experiment: BPI microtiter binding assay, LPS biotin-coated plates; parameters: species or system human; details: ligand pre-incubated with 20 nM rBPI
T1 construct: the human BPI (aa 32-487) and a C-terminal FLAG Tag; HA signal peptide (N); made in house; host or cells: HEK293T
Protocol: BPI binding assays were performed using a protocol published for LBP ([9]) with some modifications. Streptavidin-coated 96-well plates (Nunc^TM Immobilizer^TM Streptavidin F96 clear, Thermo Fisher Scientific, Waltham, MA, USA) were coated with LPS biotin (2 μg/ml) or Pam2CSK4 biotin (1 μg/ml) in PBS overnight at 23°C with gentle agitation. After washing with assay buffer (150 mM NaCl, 50 mM HEPES, Sigma Aldrich, Taufkirchen, Germany) containing 0.01% Casein, plates were blocked with 10 g/l BSA (Sigma Aldrich, Taufkirchen, Germany) at 37°C and washed again. Thereafter, ligands were preincubated with 20 nM BPI in assay buffer containing 1 g/l BSA for 30 min and loaded onto the plates. In case of bacterial lysates, 0.05% Tween 20 was added for preincubation. After incubation for 1 h at 37°C, three washing steps were performed. Bound BPI was detected by murine anti-human BPI monoclonal antibody (Cat.-No. HM2042, Hycult Biotech, Uden, Netherlands) and HRP-conjugated rabbit anti-mouse IgG (Cat.-No. 315-035-048, Dianova, Hamburg, Germany). TMB (BD OptEIA^TM TMB Substrate Reagent Set, BD Biosciences, Heidelberg, Germany) was used as a substrate for peroxidase. After addition of 1 N HCl, absorbance was measured at 450 nm. Technical replicates were performed at least two times using exactly the same reagents and are not indicated for the BPI microtiter binding assay. Biological replicates shown here are experiments independently performed by using separately formulated solutions of the reagents.

rBPI [2] = system: T1, rBPI; experiment: NanoDSF thermal stability of rBPI with ligand; assay type: binding, human; details: 5 μM rBPI, 30 μM ligand, PBS pH 7.4
Protocol: For thermal unfolding experiments, rBPI protein was diluted to a final concentration of 5 μM in PBS pH 7.4, either containing a ligand at 30 μM concentration [(R)-Pam3CSK4, (R)-FSL-1 or LPS EC] or in the absence of a ligand. For each condition, 10 μl of sample per capillary were prepared. The samples were loaded into UV capillaries and experiments were carried out using the Prometheus NT.48 (NanoTemper Technologies, Munich, Germany). The temperature gradient was set to an increase of 1°C/min with a range from 20 to 90°C. Protein unfolding was measured by detecting the temperature-dependent change in tryptophan fluorescence at emission wavelength of 350 nm (Figure 3E, upper panel). Melting temperature (Tm) was determined by detecting the maximum of the first derivative of the fluorescence wavelength 350 nm. For this purpose, an 8th order polynomial fit was calculated for the transition region (Figure 3E, lower panel). Next, the first derivative of the fit was formed and the peak position (at Tm) was determined. Finally, Tm shift (Tm protein alone — Tm protein with ligand) upon addition of ligand to the protein (in°C) was calculated. Technical and biological replicates were defined as described for BPI microtiter binding assays.

BPIN(A) = target: T2, BPIN(A) (Homo sapiens, UniProt P17213); experiment: MicroScale Thermophoresis (MST) binding assay with neutrophil BPI; details: 25°C
T2 construct: Bactericidal/permeability-increasing protein (BPI) extracted from neutrophils; purchased Athens Research and Technology; host or cells: neutrophils
T2 sequence (P17213 32-487): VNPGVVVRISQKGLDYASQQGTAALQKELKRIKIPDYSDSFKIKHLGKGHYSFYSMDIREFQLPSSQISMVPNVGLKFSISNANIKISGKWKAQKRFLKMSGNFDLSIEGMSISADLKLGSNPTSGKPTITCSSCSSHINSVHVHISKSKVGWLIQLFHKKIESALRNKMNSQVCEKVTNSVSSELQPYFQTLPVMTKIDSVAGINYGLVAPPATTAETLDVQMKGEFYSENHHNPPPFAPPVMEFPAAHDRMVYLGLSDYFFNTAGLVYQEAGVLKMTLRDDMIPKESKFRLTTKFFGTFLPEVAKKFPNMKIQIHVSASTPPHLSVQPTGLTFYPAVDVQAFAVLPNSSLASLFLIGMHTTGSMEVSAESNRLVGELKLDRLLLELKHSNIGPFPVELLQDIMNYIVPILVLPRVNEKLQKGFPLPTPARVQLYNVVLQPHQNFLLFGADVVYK
Protocol: BPIN(A) and rBPI were labeled with NT647 in PBS pH 7.4 (Monolith NT™ Protein Labeling Kit RED—NHS, NanoTemper Technologies, Munich, Germany). Concentration of labeled protein was determined using the NanoDrop (ThermoScientific, Wilmington, NC, USA) and Bradford assay (Promega, Mannheim, Germany). MicroScale Thermophoresis (MST) binding experiments were carried out with 5 nM labeled protein in binding buffer (10 mM HEPES pH 7.4, 150 mM NaCl, 0.1% Tween) with 0.05–1,679 nM of LPS EC or 0.196–6,436 nM of Pam3CSK4 or 0.61–20,000 nM of LTA SAΔlgt and LTA SPΔlgt or of >0.61–20,000 nM WTA SPΔlgt at 20–40% MST power, 20% LED power in premium capillaries on a Monolith NT.115 pico device at 25°C (NanoTemper Technologies, Munich, Germany). For MST binding assays based on Pam3CSK4 Fluorescein, 20 nM of the fluorescent molecule in binding buffer (10 mM HEPES pH 7.4, 150 mM NaCl, 0.1% Tween) was supplied with 0.018–600 nM BPIN(A) and measured at 40% MST power, 10% LED power in premium capillaries on a Monolith NT.115 pico device at 25°C (NanoTemper Technologies, Munich, Germany).
MST timetraces were recorded and the temperature jump or, respectively, thermophoresis was analyzed. The recorded fluorescence was plotted against the ligand concentration and curve fitting was performed with KaleidaGraph 4.5 using the dissocation constant (KD) fit formula derived from the law of mass action. […]

TLR2 = system: TLR2; parameters: method as in PMID 15193414; details: cited from earlier work

| Compound | inhibition of binding of rBPI to LPS biotin-coated wells (rBPI [1]) | TLR2-stimulatory potential (TLR2) | also measured |
| --- | --- | --- | --- |
| CCCCCCCCCCCCCCCC(=O)OCC(CO)OC(=O)CCCCCCCCCCCCCCC (stereo not shown) [DAG, Diacyl-glycerol 16:0] | no inhibitory binding | – | – |
| (R)-Pam2CSK4: di-acylated lipopeptide; acyl-chain deleted at the amino-terminal cysteine of the residual peptide (CSKKKK; di-acylated: diacyl-thioglycerol motif on the cysteine; no acyl-chain at the amino-terminal cysteine of the residual peptide) | lower inhibitory potential | – | change in melting temperature (Tm) of rBPI (rBPI [2]): decrease in Tm |
| Pam3CSK4 Fluorescein: Pam3CSK4, covalently labeled with fluorescein (CSKKKK) | – | – | Kd (BPIN(A); 20 nM Pam3CSK4 Fluorescein incubated with increasing concentrations of unlabeled BPIN(A)): 0.0203 µM |
| Pam3CSK4: tri-acylated lipopeptide; racemate of (R)-Pam3CSK4 and (S)-Pam3CSK4 (Palmitoyl-CSKKKK; not fully specified (residue 1); also: racemate of (R) and (S) forms at the glycerol centre) | inhibited binding of rBPI to LPS in a dose-dependent manner | – | Kd (BPIN(A); BPIN(A) NT647 (5 nM) incubated with increasing concentrations of ligand): 0.0667 µM |
| Pam 2^* CSK4: di-acylated lipopeptide; acyl-chain deleted at the O-2-position of the thioglycerol core (CSKKKK; also: di-acylated lipopeptide, acyl chain deleted at O-2 of thioglycerol core) | lower inhibitory potential | lack TLR2-stimulatory potential | – |
| PamCSK4: mono-acylated lipopeptide; glycerol-core with two fatty acids deleted, peptide with only one fatty acid (Palmitoyl-CSKKKK) | not enough to completely block the inhibitory potential | lack TLR2-stimulatory potential | – |
